In PMC11433535 (Life, 2024):
Values after ≈ are worked out from the molar mass of the structure shown.

Key:
[1] = Solubility of acyclovir in the cell culture medium; type: physicochemical; conditions: fully supplemented EMEM cell culture medium, crystallization observed at 3200 µM
Procedure: The following concentrations were prepared for the experiments: 3200 µM, 1600 µM, 800 µM, 400 µM, 200 µM, 100 µM, and 50 µM.

[2] = system: European catfish virus (ECV); test: qPCR of viral DNA load in infected EPC cells, ECV; type: cell-based; conditions: 800 µM acyclovir, MOI 0.05, 48 h, normalized to beta-actin
Procedure: (§1) The EPC cells were also seeded in 24-well plates (2 × 10^5 cells/well) and incubated overnight at 25 °C. […] The plates were incubated for 48 h at 25 °C. Afterwards, the plates were frozen at −20 °C, followed by nucleic acid extraction and qPCR analysis.
(§2) Extraction of viral DNA was carried out with the Viral Nucleic Acid Extraction Kit II (Geneaid, New Taipei City, China) according to the manufacturer’s instructions. The extracted DNA was stored at −20 °C. Quantitative PCRs (qPCRs) were used to determine the relative amount of viral DNA in the treated and control groups. The qPCRs were performed in a Bio-Rad® Real-Time PCR System instrument (Bio-Rad, Hercules, CA, USA) using the SensiFast^TM SYBR Hi-ROX Kit (Bioline, London, UK). The PCR mixture contained 10 µL of 2xSensifast SYBR mix, 0.8 µL of forward and reverse primers, 6.4 µL pf distilled water, and 2 µL of the target DNA. The final 20 µL mixture was used in a program that included an initial denaturing step at 95 °C for 3 min, followed by 40 cycles of 95 °C for 5 s and either 65 °C or 72 °C for 30 s. All the qPCRs were performed in duplicate, and the beta-actin gene of the EPC cells was used as an internal standard. The resulting qPCR data were analyzed by the Bio-Rad CFX Maestro Software. During the experiment, ranavirus major capsid protein forward and reverse primers were used for both the ECV and FV3 viruses. […]

CyHV-3 = conditions: 222.02 and 444.04 µM acyclovir; cited from earlier work
Frog virus 3 (FV3) [3] = test: qPCR of viral DNA load in infected EPC cells, FV3; type: cell-based; conditions: 800 µM acyclovir, MOI 0.05, 48 h, normalized to beta-actin
Procedure: as §1, §2

in vitro = type: cell-based; conditions: fathead minnow (Pimephales promelas)
Procedure: In brief, 96-well plates were seeded with the EPC cells at a density of 2 × 10^4 cells/well and incubated for 24 h at 25 °C. The growth medium was then replaced with acyclovir-containing medium at concentrations of 3200 µM, 1600 µM, 800 µM, 400 µM, 200 µM, 100 µM, and 50 µM.

[4] = system: European catfish virus (ECV); test: Endpoint virus titration (TCID50/mL) in EPC cells, ECV; type: cell-based; conditions: 800 µM acyclovir, 10 days, vs control
Procedure: (§3) Epithelioma Papulosum Cyprini (EPC; ATCC CRL-2872) cells were grown and handled as described in detail previously. IcHV-2 originates from Italy, while the ECV strain (14612/2012) was isolated from the brown bullhead in Hungary. The Frog Virus 3 strain Granoff (FV3, ATCC VR-567) was originally isolated from a leopard frog (Lithobates pipiens) in the USA in 1965 [38] and was propagated on various fish and reptilian cell lines before it was added to our collection by courtesy of Rachel Marschang (University of Hohenheim, Stuttgart, Germany). All three viruses were cultivated in the EPC cell line at 25 °C. The tissue culture infectious dose (TCID50/mL) was calculated by the Reed and Muench method.
(§4) The EPC cells were seeded into 96-well plates (2 × 10^4 cells/well) and incubated overnight at 25 °C. […] The titers were read after 10 days of incubation at 25 °C.

Frog virus 3 (FV3) [5] = test: Endpoint virus titration (TCID50/mL) in EPC cells, FV3; type: cell-based; conditions: 800 µM acyclovir, 10 days, vs control
Procedure: as §3, §4

IcHV-1 = conditions: 10 µM acyclovir, BB cells; cited from earlier work
[6] = system: Ictalurid herpesvirus 2 (IcHV-2); test: Endpoint virus titration (TCID50/mL) in EPC cells, IcHV-2; type: cell-based; conditions: 800 µM acyclovir, 10 days, vs control
Procedure: as §3, §4

[7] = system: Ictalurid herpesvirus 2 (IcHV-2); test: qPCR of viral DNA load in infected EPC cells, IcHV-2; type: cell-based; conditions: 800 µM acyclovir, MOI 0.05, 48 h, normalized to beta-actin
Procedure: as §1, §2

Nc1nc2c(ncn2COCCO)c(=O)[nH]1 [acyclovir]
solubility [1]: 3.2 mM (≈ 721 µg/mL)
Reduction of viral DNA load (qPCR) [2]: 10^5 fold
Reduction (CyHV-3) (CyHV-3): 98%
Reduction of viral DNA load (qPCR) (Frog virus 3 (FV3) [3]): 10^3 fold
viability at 3 days, 50 µM (in vitro): 113 ± 1.92%
viability at 3 days, 100 µM (in vitro): 105 ± 1.48%
viability at 3 days, 200 µM (in vitro): 111 ± 2.27%
viability at 3 days, 400 µM (in vitro): 110 ± 3.45%
viability at 3 days, 800 µM (in vitro): 103 ± 1.41%
viability at 3 days, 1600 µM (in vitro): 94.3 ± 1.47%
viability at 3 days, 3200 µM (in vitro): 103 ± 1.58%
Decrease of viral load (TCID50/mL titer) [4]: 2500 fold
Decrease of viral load (TCID50/mL titer) (Frog virus 3 (FV3) [5]): 11 fold
Reduction of plaque number (IcHV-1): 99%
Decrease of viral load (TCID50/mL titer) [6]: 30 fold
Reduction of viral DNA load (qPCR) [7]: 10^4 fold
